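Results reflect a 48-hour exposure of cells in 96-well plates to compound at five concentrations. TGI: concentration producing complete growth inhibition.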 Where a SMILES comes first, the peptide text is derived from it. [ ]: non-standard residue; d: D form. The star is where a group is joined. ξ: configuration not given here. ξF = NC(Cc1ccccc1)C(=O)O; Cbz = O=C(OCc1ccccc1)*; Aib = CC(C)(N)C(=O)O
What was measured:
Test in all cases: growth of human tumour cells (NCI), 48 h
HS 578T breast = tested on: HS 578T breast
PC-3 prostate = tested on: PC-3 prostate
BT-549 breast = tested on: BT-549 breast
HL-60(TB) leukemia = tested on: HL-60(TB) leukemia
NCI-H522 lung = tested on: NCI-H522 lung
NCI-H460 lung = tested on: NCI-H460 lung
OVCAR-3 ovarian = tested on: OVCAR-3 ovarian
SNB-19 CNS = tested on: SNB-19 CNS
SN12C renal = tested on: SN12C renal
MALME-3M melanoma = tested on: MALME-3M melanoma

SMILES | TGI (HS 578T breast) [µM] | TGI (PC-3 prostate) [µM] | TGI (BT-549 breast) [µM] | TGI (HL-60(TB) leukemia) [µM] | TGI (NCI-H522 lung) [µM] | TGI (NCI-H460 lung) [µM] | TGI (OVCAR-3 ovarian) [µM] | TGI (SNB-19 CNS) [µM] | TGI (SN12C renal) [µM] | TGI (MALME-3M melanoma) [µM]
Cn1c(=O)c2c(nc(NCCCCl)n2CC(=O)O)n(C)c1=O | > 100 | > 100 | > 100 | > 100 | > 100 | > 100 | > 100 | > 100 | > 100 | –
Cc1cn(C2CC(n3cc(Cn4cc(F)c(=O)[nH]c4=O)nn3)C(CO)O2)c(=O)[nH]c1=O (stereo unspecified) | > 100 | > 100 | > 100 | > 100 | – | – | > 100 | > 100 | > 100 | > 100
Brc1ccc(N=NN2CCCCC2)cc1 | > 100 | > 100 | > 100 | – | > 100 | > 100 | > 100 | > 100 | > 100 | –
Cc1ccc(S(=O)(=O)N/C(=C\C=C\c2ccccc2)C(=O)C(C)(C)C)cc1 | > 100 | > 100 | – | > 100 | > 100 | > 100 | > 100 | > 100 | > 100 | > 100
CCC(CCCN)Nc1cc(OC)cc2cccnc12 (stereo unspecified) | > 100 | > 100 | > 100 | 51.1 | – | > 100 | > 100 | > 100 | > 100 | > 100
CCC(C)[C@H](NC(=O)N[C@H](C)c1ccccc1)C(=O)OC (stereo partly specified) | – | > 100 | > 100 | > 100 | – | > 100 | > 100 | > 100 | > 100 | –
CCN1CC(C)Cn2c(=O)[nH]c3cc(Br)cc1c32 (stereo unspecified) | 74.3 | > 100 | 56.8 | 37.5 | – | > 100 | 77.5 | > 100 | > 100 | > 100
Cc1c(C)c(C)c(-n2[nH]c(=O)n(C)c2=O)c(C)c1C | > 100 | > 100 | > 100 | > 100 | – | > 100 | > 100 | > 100 | > 100 | –
CC(C)CCCC(C)[C@H]1CCC2[C@@H]3CCC4Cc5nc6c(nc5C[C@]4(C)C3CC[C@@]21C)CC1CC[C@@H]2C(C[C@@H](O)[C@@]3(C)C2C[C@@H]2OC4(CCC(C)CO4)C(C)[C@@H]23)[C@@]1(C)C6 (stereo partly specified) | > 100 | > 100 | > 100 | > 100 | > 100 | > 100 | > 100 | > 100 | > 100 | –
CCCCOC(=O)CNC(=O)OCCCCC#CC#CCCCCOC(=O)NCC(=O)OCCCC | – | – | – | > 100 | > 100 | > 100 | – | > 100 | > 100 | > 100
O=c1[nH]nc(Cc2ccccc2)n1/N=C/c1c[nH]c2ccccc12 | 79.4 | > 100 | – | > 100 | > 100 | > 100 | > 100 | > 100 | > 100 | > 100
CCCCCc1cc(OC(=O)c2c(O)cc(OC)cc2CCCCC)cc(O)c1C(=O)O | – | – | – | 60.2 | 28.2 | 31.3 | – | 25.5 | 32.8 | 26.1
COC1=CC(=O)c2ccccc2C1(CCC=C(C)C)C1=NC(C)(C)CO1 (stereo unspecified) | – | – | – | 62.9 | > 100 | > 100 | > 100 | > 100 | > 100 | > 100
CC1(C)OC2OC(COC(=O)C=[N+]=[N-])C3OC(C)(C)OC3C2O1 (stereo unspecified) | – | > 100 | > 100 | > 100 | > 100 | > 100 | > 100 | > 100 | > 100 | > 100
COC(=O)CCCc1ccc2c(c1)CC1(C2)Cc2cc3c(cc2C1)CCCC3 | 90.9 | > 100 | – | 29.2 | 84 | – | > 100 | – | > 100 | > 100
Cc1ccc(C(=O)OC[C@H]2CC[C@@H](n3cc(N(C)C4CCCCC4)c(=O)[nH]c3=O)O2)cc1 | > 100 | > 100 | – | > 100 | 46.6 | > 100 | 54.4 | 61.4 | 39.5 | 56.7
CN(C)c1ccc(/C=N/Nc2nc3ccccc3c(=O)n2-c2ccccc2)cc1 | – | > 100 | – | > 100 | > 100 | > 100 | > 100 | > 100 | > 100 | > 100
Cc1ccc(F)cc1NC(=O)O/N=C(\Cl)C(C)C | > 65.6 | 33.4 | – | > 21.2 | 2.13 | 86 | 13.9 | > 56.8 | 11.4 | 16
N/N=C(\C(=O)Nc1c(Cl)cc([N+](=O)[O-])cc1Cl)C(c1cnc2ccc([N+](=O)[O-])cc2n1)[N+](=O)[O-] (stereo unspecified) | – | – | – | > 100 | 53.3 | > 100 | – | > 100 | > 100 | –
COC(=O)/C=C\Sc1ccn(/C=C\C(=O)OC)c(=S)n1 | 78.9 | 46.5 | 44.9 | > 100 | 31.4 | – | 26.7 | 41.6 | 82.9 | 53.9
CC(C)(NC(=O)OCc1ccccc1)C(=O)NC(Cc1ccccc1)C(=O)O (stereo unspecified) (Cbz-[Aib]-[ξF]-OH) | > 100 | > 100 | > 100 | – | > 100 | > 100 | > 100 | > 100 | > 100 | > 100
c1ccc2c(-c3cnc(-c4c[nH]c5ccccc45)cn3)c[nH]c2c1 | > 100 | > 100 | > 100 | – | 64.2 | > 100 | > 100 | > 100 | > 100 | > 100
CCC1C(=O)C[C@H]2[C@@H]3C(O)CC4=CC(=O)CC[C@]4(C)[C@H]3CC[C@]12C (stereo partly specified) | > 50 | > 50 | – | > 50 | > 50 | > 50 | > 50 | > 50 | > 50 | > 50
CC(C)(C)OC(=O)n1cc(C2CNC(=O)C23CCC(=O)N3Cc2ccccc2)c2ccccc21 (stereo unspecified) | 86.5 | 79.3 | – | 82.5 | 35 | 47.6 | 46.8 | > 100 | 32.4 | 42.8

From PubChem BioAssay (NCI)
